Results: US11150255B2, “Additive channels” (Emulate Inc., priority 2016, dated 2021)
“Also recorded” adds a separate entry of the source. Positions of bridges follow the written chain, without caps; N, C: chain ends. Non-standard residues stand in square brackets, D forms with d. Residues, ends and D or L forms follow the SMILES beside them. hArg = N=C(N)NCCCC[C@H](N)C(=O)O; Mpa = O=C(O)CCS

Columns and labels:
[1] = system: FcγRIIa; test: Vessel-On-Chip thrombosis, all endpoints (platelet coverage, fibrin deposition, TAT); type: cell-based, human; details: for hu5C8-mediated thrombosis on-chip (platelet coverage, fibrin deposition, TAT): with sCD40L 10 ng/ml, IV.3 1 μg/ml pre-incubation or IgG2σ variant in place of hu5C8
[2] = system: platelets in human whole blood over HUVEC endothelium; test: Vessel-On-Chip blood perfusion, platelet coverage by fluorescence imaging; type: cell-based; details: for platelet aggregate formation / platelet coverage: hu5C8 240 μg/ml, sCD40L 10 ng/ml, untreated endothelium, 60 μl/minute, vs untreated blood; for platelet aggregation / platelet coverage: TNF-α 50 ng/ml 6 hours endothelial pre-treatment or sCollagen 10 μg/ml in blood, vs blood alone
Experimental: (§1) Briefly, human blood was drawn in citrate buffer and used within 4 hours. Platelets were stained using fluorescently labeled non-blocking antibodies for the platelet surface marker CD41 and low dosages of fluorescent fibrinogen were added in order to visualize fibrin deposition. Blood was re-calcified in order to re-establish the full coagulation potential, then introduced in the biomimetic vessel-on-chip from the main inlet (embodiments of inlets shown in FIG. 18A-1, FIG. 18A-2 and FIG. 19C). The outlet of the chip was connected to a pulling syringe pump with a system of tubing and connectors made of medical grade silicon that excludes any metal components or potential causes of platelet activation (FIG. 5A).
(§2) After 14 minutes of perfusion, the flow was interrupted and the chips were immediately imaged via fluorescence microscopy (FIG. 18C and FIG. 19D). In healthy conditions, endothelial cells will provide an antithrombotic surface where blood can flow smoothly, and indeed we detected minimal platelet adhesion or fibrin deposition in our vessel-on-chip after blood perfusion in control conditions, FIG. 18C, Blood.
Platelets were labeled with human CD41-PE antibody (10 μL/ml, Invitrogen) directly added to the blood and incubated at room temperature for 5 minutes.
A medical grade plastic reservoir was mounted on the chip, then 800 μl of the blood sample was pipetted into the reservoir. The chip was perfused with the blood by withdrawing it at a rate of 60 μl/minute using a syringe pump. The citrated blood was re-calcified 2 minutes after the beginning of each experiment by adding 100 μl/ml of a solution containing 100 mM calcium chloride and 75 mM magnesium chloride to the blood to permit calcium- and magnesium-dependent platelet function and coagulation.
(§3) Chips perfused with blood samples were immediately imaged via fluorescence microscopy (Olympus IX83, 10× objective UPLFLN10×2, Orca-Flash4.0 CMOS Camera). Each chamber was inspected along its entire length and S images (about 0.25 cm) were captured from the central area of the chamber. Image processing and quantification was performed with an automatic macro compiled in ImageJ and numerical values corresponding to platelet coverage or fibrin florescence were collected and statistically analyzed in Graphpad Prism V7.
(§4) A percentage of signal coverage (or Platelet coverage) was computed from the binary image as the ratio of bright pixels to the total number of pixels in the image. Image processing and quantification was performed with an automatic macro compiled in ImageJ in order to ensure unbiased signal measurements. Numerical values corresponding to platelet coverage or fibrin fluorescence (signal intensity) were collected and statistically analyzed in Graphpad Prism V7.

[3] = system: fibrin deposition on the endothelium; test: Vessel-On-Chip blood perfusion, fibrin deposition by fluorescent fibrinogen imaging; type: cell-based, human; details: for fibrin deposition / fibrin clot formation: hu5C8 240 μg/ml, sCD40L 10 ng/ml, untreated endothelium, 60 μl/minute, vs untreated blood; for fibrin deposition / fibrin signal intensity: TNF-α 50 ng/ml 6 hours endothelial pre-treatment or sCollagen 10 μg/ml in blood, vs blood alone
Experimental: as §1, §2
When analyzing the formation of fibrin, […] of fluorescently labeled fibrinogen (Alexa 488, Invitrogen) was also added to the blood. While fluorescent fibrinogen was barely detected as a diffused fluorescence, fibrin deposition on inflamed cells and sparse clots was easily distinguished since fibrin formed filamentous structures produce a signal intensity that is clearly observed above a background threshold.
as §3, §4

[4] = system: patients; details: hu5C8: lupus nephritis study; IDEC-131: Crohn's disease trial; cited from earlier work
[5] = system: thrombin anti-thrombin complex (TAT); test: Thrombin anti-thrombin (TAT) ELISA in chip effluent plasma; type: cell-based, human; details: TNF-α endothelial pre-treatment or sCollagen in blood; outflow samples
Experimental: Thrombin converts fibrinogen into fibrin during clot formation, and anti-thrombin plays a role in maintaining homeostasis by inhibiting the effect of thrombin. Formation of TAT in the microdevice confirms that local and intrinsic generation of thrombin, a potent platelet agonist, occurs in the model and that counter regulatory mechanisms for coagulation are retained. Thus, blood sampled from the Vessel-On-Chip was analyzed for thrombin anti-thrombin complex (TAT), an accepted clinical biomarker for procoagulation^48,49. […] An enzyme-linked immunosorbant assay (ELISA) was used to quantify the thrombin anti-thrombin complex (TAT).
Thrombin Anti-Thrombin (TAT) levels were analyzed in plasma from blood flowing out of the chip device by removing a sample from the outflow port. Thus TAT levels were evaluated in sample effluents collected from the outflow port of the chip using the Human TAT ELISA Kit (Siemens Healthineers) according to the user manual.
Blood sampled from the Vessel-On-Chip outflow port was analyzed for thrombin anti-thrombin complex (TAT), a factor released upon activation of the coagulation cascade and one of the biomarkers associated with thrombotic events occurring in patients affected with deep vein thrombosis (DVT) or SLE^45,46. […] An enzyme-linked immunosorbant assay (ELISA) was used to quantify the thrombin anti-thrombin complex (TAT).

[6] = Eptifibatide 2 ug/ml, endothelium inflamed with TNF-α, n=4

hu5C8 (IgG2σ): IgG2σ variant of hu5C8 with an engineered Fc region that eliminates affinity for the FcγRIIa
hu5C8-mediated thrombosis on-chip (platelet coverage, fibrin deposition, TAT) [1]: did not show signs of thrombosis
hu5C8-mediated thrombosis on-chip (platelet coverage, fibrin deposition, TAT) ([1]; listed as IgG2σ): suppressed
hu5C8-mediated thrombosis on-chip (platelet coverage, fibrin deposition, TAT) ([1]; listed as hu5C8-IgG2σ): not detected

hu5C8: humanized monoclonal IgG1 antibody against CD40L, alternatively named anti-sCD40L or anti-CD154
platelet aggregate formation / platelet coverage [2]: no significant treatment-related effects
fibrin deposition / fibrin clot formation [3]: no significant treatment-related effects
incidence of thromboembolic events in clinical study [4]: 2/18

TNF-α
platelet aggregation / platelet coverage [2]: increased; also recorded: high number of larger aggregates
fibrin deposition / fibrin signal intensity [3]: increased
levels of TAT [5]: significantly increased; also recorded: elevated levels

N=C(N)NCCCC[C@@H]1NC(=O)CCSSC[C@@H](C(N)=O)NC(=O)[C@@H]2CCCN2C(=O)[C@H](Cc2c[nH]c3ccccc23)NC(=O)[C@H](CC(=O)O)NC(=O)CNC1=O [Eptifibatide] ([Mpa][hArg]GDWPC-NH2; disulfide 1-7)
inhibitory effect on platelet aggregation and fibrin clot formation ([2]; Eptifibatide 2 ug/ml, blood treated with sCollagen, n=4): comparatively modest
platelet aggregation [2, 6]: significantly inhibited
platelet adhesion (image analysis of multiple experiments) ([2]; Eptifibatide 2 ug/ml, n=4): completely inhibited
platelet coverage in stimulated, pro-thrombotic conditions ([2]; TNF-α or sCollagen, with Eptifibatide, FIG. 18E-1, n=4 donors): suppressed
fibrin clot formation [3, 6]: significantly inhibited
fibrin signal (image analysis of multiple experiments) ([3]; Eptifibatide 2 ug/ml, samples treated with TNF-α, n=4): a significant amount of fibrin signal was still detectable
fibrin deposition in stimulated, pro-thrombotic conditions ([3]; TNF-α or sCollagen, with Eptifibatide, FIG. 18E-2, n=4 donors): suppressed
thrombotic events recapitulated in the system ([1]; clinically relevant dosages of Eptifibatide): inhibited

sCollagen: soluble collagen (Soluble Calf Skin, Type I), a standard platelet activator
platelet aggregation / platelet coverage [2]: increased; also recorded: high number of larger aggregates
fibrin deposition / fibrin signal intensity [3]: increased
levels of TAT [5]: minimally increased; also recorded: elevated levels

sCD40L: Recombinant human sCD40 Ligand
platelet aggregate formation / platelet coverage [2]: no significant treatment-related effects; also recorded: not statistically significant
increase in platelet coverage in some donors, fold over untreated control ([2]; sCD40L alone): about 2 fold
fibrin deposition / fibrin clot formation [3]: no significant treatment-related effects
